± gives the expanded uncertainty stated by the source.
Experiment: refractive index (Na D-line) (dimensionless); xn = mol fraction of the nth substance listed
Conditions: 101 kPa, Liquid

Compound `CCn1cc[n+](C)c1.O=S(=O)([O-])C(F)(F)F` [1-ethyl-3-methylimidazolium trifluoromethanesulfonate] + CC(C)=O has a refractive index (288.15 K, x1 = 0.04957) of 1.37495 ± 0.0013, a refractive index (288.15 K, x1 = 0.1005) of 1.38499 ± 0.0013 and a refractive index (288.15 K, x1 = 0.1503) of 1.39293 ± 0.0013. It also gave a refractive index (288.15 K, x1 = 0.2007) of 1.39936 ± 0.0013, a refractive index (288.15 K, x1 = 0.2995) of 1.40865 ± 0.0013 and a refractive index (288.15 K, x1 = 0.3973) of 1.41585 ± 0.0013. It also gave a refractive index (288.15 K, x1 = 0.5018) of 1.42117 ± 0.0013, a refractive index (288.15 K, x1 = 0.5996) of 1.42541 ± 0.0013 and a refractive index (288.15 K, x1 = 0.6973) of 1.42854 ± 0.0013. For the same compound, the refractive index (288.15 K, x1 = 0.7733) was 1.43087 ± 0.0013, the refractive index (288.15 K, x1 = 0.8452) was 1.43253 ± 0.0013 and the refractive index (288.15 K, x1 = 0.8988) was 1.43368 ± 0.0013. It also gave a refractive index (288.15 K, x1 = 0.9559) of 1.43487 ± 0.0013, a refractive index (298.15 K, x1 = 0.04957) of 1.36994 ± 0.0013 and a refractive index (298.15 K, x1 = 0.1005) of 1.38033 ± 0.0013. For the same compound, the refractive index (298.15 K, x1 = 0.1503) was 1.38854 ± 0.0013, the refractive index (298.15 K, x1 = 0.2007) was 1.39527 ± 0.0013 and the refractive index (298.15 K, x1 = 0.2995) was 1.40492 ± 0.0013. It also gave a refractive index (298.15 K, x1 = 0.3973) of 1.41237 ± 0.0013, a refractive index (298.15 K, x1 = 0.5018) of 1.41787 ± 0.0013 and a refractive index (298.15 K, x1 = 0.5996) of 1.42225 ± 0.0013. For the same compound, the refractive index (298.15 K, x1 = 0.6973) was 1.42549 ± 0.0013, the refractive index (298.15 K, x1 = 0.7733) was 1.42786 ± 0.0013 and the refractive index (298.15 K, x1 = 0.8452) was 1.42963 ± 0.0013. The refractive index (298.15 K, x1 = 0.8988) was 1.43085 ± 0.0013, the refractive index (298.15 K, x1 = 0.9559) was 1.43207 ± 0.0013 and the refractive index (308.15 K, x1 = 0.04957) was 1.36575 ± 0.0013. For the same compound, the refractive index (308.15 K, x1 = 0.1005) was 1.37615 ± 0.0013, the refractive index (308.15 K, x1 = 0.1503) was 1.38475 ± 0.0013 and the refractive index (308.15 K, x1 = 0.2007) was 1.39155 ± 0.0013. For the same compound, the refractive index (308.15 K, x1 = 0.2995) was 1.40133 ± 0.0013, the refractive index (308.15 K, x1 = 0.3973) was 1.409 ± 0.0013 and the refractive index (308.15 K, x1 = 0.5018) was 1.41464 ± 0.0013. It also gave a refractive index (308.15 K, x1 = 0.5996) of 1.41908 ± 0.0013, a refractive index (308.15 K, x1 = 0.6973) of 1.4225 ± 0.0013 and a refractive index (308.15 K, x1 = 0.7733) of 1.4249 ± 0.0013. It also gave a refractive index (308.15 K, x1 = 0.8452) of 1.42676 ± 0.0013, a refractive index (308.15 K, x1 = 0.8988) of 1.42803 ± 0.0013 and a refractive index (308.15 K, x1 = 0.9559) of 1.42925 ± 0.0013. The refractive index (318.15 K, x1 = 0.04957) was 1.36218 ± 0.0013, the refractive index (318.15 K, x1 = 0.1005) was 1.37308 ± 0.0013 and the refractive index (318.15 K, x1 = 0.1503) was 1.38186 ± 0.0013. It also gave a refractive index (318.15 K, x1 = 0.2007) of 1.38862 ± 0.0013, a refractive index (318.15 K, x1 = 0.2995) of 1.39777 ± 0.0013 and a refractive index (318.15 K, x1 = 0.3973) of 1.40574 ± 0.0013. For the same compound, the refractive index (318.15 K, x1 = 0.5018) was 1.41148 ± 0.0013, the refractive index (318.15 K, x1 = 0.5996) was 1.41604 ± 0.0013 and the refractive index (318.15 K, x1 = 0.6973) was 1.41953 ± 0.0013. It also gave a refractive index (318.15 K, x1 = 0.7733) of 1.42199 ± 0.0013, a refractive index (318.15 K, x1 = 0.8452) of 1.42392 ± 0.0013 and a refractive index (318.15 K, x1 = 0.8988) of 1.42518 ± 0.0013. For the same compound, the refractive index (318.15 K, x1 = 0.9559) was 1.4265 ± 0.0013.
